Data taken from ChEMBL document CHEMBL1201861, “Genomics of Drug Sensitity in Cancer screening data, Wellcome Trust Sanger Institute”.

These compounds were tested on D-502MG (assay: cells). Details: Homo sapiens, D-502MG.
Assay type: functional, cell-based, Homo sapiens
Description: SANGER: Inhibition of human D-502MG cell growth in a cell viability assay.

Row | Compound | IC50
1 | N[C@@H](CSC(c1ccccc1)(c1ccccc1)c1ccccc1)C(=O)O [S-TRITYL-L-CYSTEINE] | > 5.12 µM

What follows are compounds tested on DEL (assay: cells). Details: Homo sapiens, DEL.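 Note: growth inhibition of the human DEL cell line, read out with a cell viability assay.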
Assay type: functional, cell-based, Homo sapiens
Description: SANGER: Inhibition of human DEL cell growth in a cell viability assay.

Row | Compound | IC50
2 | N[C@@H](CSC(c1ccccc1)(c1ccccc1)c1ccccc1)C(=O)O [S-TRITYL-L-CYSTEINE] | 1410 nM

The compounds below were run on DMS-114 (assay: cells). Details: Homo sapiens, DMS-114.
Assay type: functional, cell-based, Homo sapiens

Row | Compound | IC50
3 | N[C@@H](CSC(c1ccccc1)(c1ccccc1)c1ccccc1)C(=O)O [S-TRITYL-L-CYSTEINE] | 3.26 µM

Each compound was assayed on DOHH-2 (assay: cells). Details: Homo sapiens, DOHH-2.
Assay type: functional, cell-based, Homo sapiens
Description: SANGER: Inhibition of human DOHH-2 cell growth in a cell viability assay.

Row | Compound | IC50
4 | N[C@@H](CSC(c1ccccc1)(c1ccccc1)c1ccccc1)C(=O)O [S-TRITYL-L-CYSTEINE] | 867 nM

What follows are compounds tested on EM-2 (assay: cells). Details: Homo sapiens, EM-2.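 Note: growth inhibition of EM-2 cells, read out with a cell viability assay.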
Assay type: functional, cell-based, Homo sapiens
Description: SANGER: Inhibition of human EM-2 cell growth in a cell viability assay.

Row | Compound | IC50
5 | N[C@@H](CSC(c1ccccc1)(c1ccccc1)c1ccccc1)C(=O)O [S-TRITYL-L-CYSTEINE] | > 5.12 µM

The compounds below were run on ES3 (assay: cells). Details: Homo sapiens, ES3.
Assay type: functional, cell-based, Homo sapiens
Description: SANGER: Inhibition of human ES3 cell growth in a cell viability assay.

Row | Compound | IC50
6 | N[C@@H](CSC(c1ccccc1)(c1ccccc1)c1ccccc1)C(=O)O [S-TRITYL-L-CYSTEINE] | > 5.12 µM

Each compound was assayed on ETK-1 (assay: cells). Details: Homo sapiens, ETK-1.
Assay type: functional, cell-based, Homo sapiens
Description: SANGER: Inhibition of human ETK-1 cell growth in a cell viability assay.

Row | Compound | IC50
7 | N[C@@H](CSC(c1ccccc1)(c1ccccc1)c1ccccc1)C(=O)O [S-TRITYL-L-CYSTEINE] | 5.04 µM

Each compound was assayed on EW-11 (assay: cells). Details: Homo sapiens, EW-11.
Assay type: functional, cell-based, Homo sapiens
Description: SANGER: Inhibition of human EW-11 cell growth in a cell viability assay.

Row | Compound | IC50
8 | N[C@@H](CSC(c1ccccc1)(c1ccccc1)c1ccccc1)C(=O)O [S-TRITYL-L-CYSTEINE] | > 5.12 µM

The compounds below were run on EW-13 (assay: cells). Details: Homo sapiens, EW-13.
Assay type: functional, cell-based, Homo sapiens
Description: SANGER: Inhibition of human EW-13 cell growth in a cell viability assay.

Row | Compound | IC50
9 | N[C@@H](CSC(c1ccccc1)(c1ccccc1)c1ccccc1)C(=O)O [S-TRITYL-L-CYSTEINE] | > 5.12 µM

Each compound was assayed on EW-3 (assay: cells). Details: Homo sapiens, EW-3.
Assay type: functional, cell-based, Homo sapiens
Description: SANGER: Inhibition of human EW-3 cell growth in a cell viability assay.

Row | Compound | IC50
10 | N[C@@H](CSC(c1ccccc1)(c1ccccc1)c1ccccc1)C(=O)O [S-TRITYL-L-CYSTEINE] | 4.92 µM

These compounds were tested on HCE-T (assay: cells). Details: Homo sapiens, HCE-T.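 Note: cell viability assay read-out, reporting inhibition of HCE-T cell growth.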
Assay type: functional, cell-based, Homo sapiens
Description: SANGER: Inhibition of human HCE-T cell growth in a cell viability assay.

Row | Compound | IC50
11 | N[C@@H](CSC(c1ccccc1)(c1ccccc1)c1ccccc1)C(=O)O [S-TRITYL-L-CYSTEINE] | 2790 nM

These compounds were tested on HH (assay: cells). Details: Homo sapiens, HH.
Assay type: functional, cell-based, Homo sapiens
Description: SANGER: Inhibition of human HH cell growth in a cell viability assay.

Row | Compound | IC50
12 | N[C@@H](CSC(c1ccccc1)(c1ccccc1)c1ccccc1)C(=O)O [S-TRITYL-L-CYSTEINE] | 3.51 µM

What follows are compounds tested on IST-SL1 (assay: cells). Details: Homo sapiens, IST-SL1.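 Note: growth inhibition of human IST-SL1 cells, read out with a cell viability assay.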
Assay type: functional, cell-based, Homo sapiens
Description: SANGER: Inhibition of human IST-SL1 cell growth in a cell viability assay.

Row | Compound | IC50
13 | N[C@@H](CSC(c1ccccc1)(c1ccccc1)c1ccccc1)C(=O)O [S-TRITYL-L-CYSTEINE] | 4.34 µM

The compounds below were run on JVM-2 (assay: cells). Details: Homo sapiens, JVM-2.
Assay type: functional, cell-based, Homo sapiens
Description: SANGER: Inhibition of human JVM-2 cell growth in a cell viability assay.

Row | Compound | IC50
14 | N[C@@H](CSC(c1ccccc1)(c1ccccc1)c1ccccc1)C(=O)O [S-TRITYL-L-CYSTEINE] | > 5.12 µM

The compounds below were run on JVM-3 (assay: cells). Details: Homo sapiens, JVM-3.
Assay type: functional, cell-based, Homo sapiens
Description: SANGER: Inhibition of human JVM-3 cell growth in a cell viability assay.

Row | Compound | IC50
15 | N[C@@H](CSC(c1ccccc1)(c1ccccc1)c1ccccc1)C(=O)O [S-TRITYL-L-CYSTEINE] | > 5.12 µM

What follows are compounds tested on K5 (assay: cells). Details: Homo sapiens, K5.
Assay type: functional, cell-based, Homo sapiens
Description: SANGER: Inhibition of human K5 cell growth in a cell viability assay.

Row | Compound | IC50
16 | N[C@@H](CSC(c1ccccc1)(c1ccccc1)c1ccccc1)C(=O)O [S-TRITYL-L-CYSTEINE] | 1040 nM

These compounds were tested on KALS-1 (assay: cells). Details: Homo sapiens, KALS-1.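 Note: growth inhibition of KALS-1 cells, determined with a cell viability assay.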
Assay type: functional, cell-based, Homo sapiens
Description: SANGER: Inhibition of human KALS-1 cell growth in a cell viability assay.

Row | Compound | IC50
17 | N[C@@H](CSC(c1ccccc1)(c1ccccc1)c1ccccc1)C(=O)O [S-TRITYL-L-CYSTEINE] | 1320 nM

What follows are compounds tested on KARPAS-45 (assay: cells). Details: Homo sapiens, KARPAS-45.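 Note: inhibition of cell line growth, read out through a viability assay.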
Assay type: functional, cell-based, Homo sapiens
Description: SANGER: Inhibition of human KARPAS-45 cell growth in a cell viability assay.

Row | Compound | IC50
18 | N[C@@H](CSC(c1ccccc1)(c1ccccc1)c1ccccc1)C(=O)O [S-TRITYL-L-CYSTEINE] | 1690 nM

What follows are compounds tested on KGN (assay: cells). Details: Homo sapiens, KGN.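 Note: growth inhibition of KGN cells, read out with a cell viability assay.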
Assay type: functional, cell-based, Homo sapiens
Description: SANGER: Inhibition of human KGN cell growth in a cell viability assay.

Row | Compound | IC50
19 | N[C@@H](CSC(c1ccccc1)(c1ccccc1)c1ccccc1)C(=O)O [S-TRITYL-L-CYSTEINE] | 622 nM

The compounds below were run on KNS-42 (assay: cells). Details: Homo sapiens, KNS-42.
Assay type: functional, cell-based, Homo sapiens
Description: SANGER: Inhibition of human KNS-42 cell growth in a cell viability assay.

Row | Compound | IC50
20 | N[C@@H](CSC(c1ccccc1)(c1ccccc1)c1ccccc1)C(=O)O [S-TRITYL-L-CYSTEINE] | 2580 nM

What follows are compounds tested on LAMA-84 (assay: cells). Details: Homo sapiens, LAMA-84.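 Note: growth inhibition of LAMA-84 cells, read out with a cell viability assay.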
Assay type: functional, cell-based, Homo sapiens
Description: SANGER: Inhibition of human LAMA-84 cell growth in a cell viability assay.

Row | Compound | IC50
21 | N[C@@H](CSC(c1ccccc1)(c1ccccc1)c1ccccc1)C(=O)O [S-TRITYL-L-CYSTEINE] | 3.16 µM

These compounds were tested on LB2518-MEL (assay: cells). Details: Homo sapiens, LB2518-MEL.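 Note: growth inhibition of human LB2518-MEL cells, measured with a cell viability assay.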
Assay type: functional, cell-based, Homo sapiens
Description: SANGER: Inhibition of human LB2518-MEL cell growth in a cell viability assay.

Row | Compound | IC50
22 | N[C@@H](CSC(c1ccccc1)(c1ccccc1)c1ccccc1)C(=O)O [S-TRITYL-L-CYSTEINE] | 3.71 µM

The compounds below were run on LB771-HNC (assay: cells). Details: Homo sapiens, LB771-HNC.
Assay type: functional, cell-based, Homo sapiens
Description: SANGER: Inhibition of human LB771-HNC cell growth in a cell viability assay.

Row | Compound | IC50
23 | N[C@@H](CSC(c1ccccc1)(c1ccccc1)c1ccccc1)C(=O)O [S-TRITYL-L-CYSTEINE] | 1950 nM

These compounds were tested on LB831-BLC (assay: cells). Details: Homo sapiens, LB831-BLC.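 Note: growth inhibition of LB831-BLC cells, read out with a cell viability assay.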
Assay type: functional, cell-based, Homo sapiens
Description: SANGER: Inhibition of human LB831-BLC cell growth in a cell viability assay.

Row | Compound | IC50
24 | N[C@@H](CSC(c1ccccc1)(c1ccccc1)c1ccccc1)C(=O)O [S-TRITYL-L-CYSTEINE] | > 5.12 µM

These compounds were tested on LS-411N (assay: cells). Details: Homo sapiens, LS-411N.
Assay type: functional, cell-based, Homo sapiens

Row | Compound | IC50
25 | N[C@@H](CSC(c1ccccc1)(c1ccccc1)c1ccccc1)C(=O)O [S-TRITYL-L-CYSTEINE] | 1520 nM

Each compound was assayed on LS-513 (assay: cells). Details: Homo sapiens, LS-513.
Assay type: functional, cell-based, Homo sapiens
Description: SANGER: Inhibition of human LS-513 cell growth in a cell viability assay.

Row | Compound | IC50
26 | N[C@@H](CSC(c1ccccc1)(c1ccccc1)c1ccccc1)C(=O)O [S-TRITYL-L-CYSTEINE] | > 5.12 µM

The compounds below were run on MFM-223 (assay: cells). Details: Homo sapiens, MFM-223.
Assay type: functional, cell-based, Homo sapiens
Description: SANGER: Inhibition of human MFM-223 cell growth in a cell viability assay.

Row | Compound | IC50
27 | N[C@@H](CSC(c1ccccc1)(c1ccccc1)c1ccccc1)C(=O)O [S-TRITYL-L-CYSTEINE] | > 5.12 µM

What follows are compounds tested on MN-60 (assay: cells). Details: Homo sapiens, MN-60.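 Note: growth inhibition of the MN-60 cell line, determined with a cell viability assay.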
Assay type: functional, cell-based, Homo sapiens
Description: SANGER: Inhibition of human MN-60 cell growth in a cell viability assay.

Row | Compound | IC50
28 | N[C@@H](CSC(c1ccccc1)(c1ccccc1)c1ccccc1)C(=O)O [S-TRITYL-L-CYSTEINE] | > 5.12 µM

These compounds were tested on MS-1 (assay: cells). Details: Homo sapiens, MS-1.
Assay type: functional, cell-based, Homo sapiens
Description: SANGER: Inhibition of human MS-1 cell growth in a cell viability assay.

Row | Compound | IC50
29 | N[C@@H](CSC(c1ccccc1)(c1ccccc1)c1ccccc1)C(=O)O [S-TRITYL-L-CYSTEINE] | 2470 nM

These compounds were tested on MV4-11 (assay: cells). Details: Homo sapiens, MV4-11.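 Note: cell viability readout measuring growth inhibition of human MV-4-11 cells.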
Assay type: functional, cell-based, Homo sapiens, MV-4-11
Description: SANGER: Inhibition of human MV-4-11 cell growth in a cell viability assay.

Row | Compound | IC50
30 | N[C@@H](CSC(c1ccccc1)(c1ccccc1)c1ccccc1)C(=O)O [S-TRITYL-L-CYSTEINE] | 381 nM

Each compound was assayed on NB17 (assay: cells). Details: Homo sapiens, NB17.
Assay type: functional, cell-based, Homo sapiens
Description: SANGER: Inhibition of human NB17 cell growth in a cell viability assay.

Row | Compound | IC50
31 | N[C@@H](CSC(c1ccccc1)(c1ccccc1)c1ccccc1)C(=O)O [S-TRITYL-L-CYSTEINE] | 3.07 µM

The compounds below were run on NCI-H1355 (assay: cells). Details: Homo sapiens, NCI-H1355.
Assay type: functional, cell-based, Homo sapiens
Description: SANGER: Inhibition of human NCI-H1355 cell growth in a cell viability assay.

Row | Compound | IC50
32 | N[C@@H](CSC(c1ccccc1)(c1ccccc1)c1ccccc1)C(=O)O [S-TRITYL-L-CYSTEINE] | 928 nM

Each compound was assayed on NCI-H526 (assay: cells). Details: Homo sapiens, NCI-H526.
Assay type: functional, cell-based, Homo sapiens
Description: SANGER: Inhibition of human NCI-H526 cell growth in a cell viability assay.

Row | Compound | IC50
33 | N[C@@H](CSC(c1ccccc1)(c1ccccc1)c1ccccc1)C(=O)O [S-TRITYL-L-CYSTEINE] | 4.45 µM

The compounds below were run on NMC-G1 (assay: cells). Details: Homo sapiens, NMC-G1.
Assay type: functional, cell-based, Homo sapiens
Description: SANGER: Inhibition of human NMC-G1 cell growth in a cell viability assay.

Row | Compound | IC50
34 | N[C@@H](CSC(c1ccccc1)(c1ccccc1)c1ccccc1)C(=O)O [S-TRITYL-L-CYSTEINE] | 3.4 µM

Each compound was assayed on OMC-1 (assay: cells). Details: Homo sapiens, OMC-1.
Assay type: functional, cell-based, Homo sapiens
Description: SANGER: Inhibition of human OMC-1 cell growth in a cell viability assay.

Row | Compound | IC50
35 | N[C@@H](CSC(c1ccccc1)(c1ccccc1)c1ccccc1)C(=O)O [S-TRITYL-L-CYSTEINE] | > 5.12 µM

These compounds were tested on P30-OHK (assay: cells). Details: Homo sapiens, P30-OHK.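 Note: growth inhibition of the P30-OHK cell line, read out with a cell viability assay.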
Assay type: functional, cell-based, Homo sapiens
Description: SANGER: Inhibition of human P30-OHK cell growth in a cell viability assay.

Row | Compound | IC50
36 | N[C@@H](CSC(c1ccccc1)(c1ccccc1)c1ccccc1)C(=O)O [S-TRITYL-L-CYSTEINE] | > 5.12 µM

What follows are compounds tested on RH-1 (assay: cells). Details: Homo sapiens, RH-1.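 Note: growth inhibition of human RH-1 cells, read out with a cell viability assay.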
Assay type: functional, cell-based, Homo sapiens
Description: SANGER: Inhibition of human RH-1 cell growth in a cell viability assay.

Row | Compound | IC50
37 | N[C@@H](CSC(c1ccccc1)(c1ccccc1)c1ccccc1)C(=O)O [S-TRITYL-L-CYSTEINE] | > 5.12 µM

Each compound was assayed on RPMI-8226 (assay: cells). Details: Homo sapiens, RPMI-8226.
Assay type: functional, cell-based, Homo sapiens
Description: SANGER: Inhibition of human RPMI-8226 cell growth in a cell viability assay.

Row | Compound | IC50
38 | N[C@@H](CSC(c1ccccc1)(c1ccccc1)c1ccccc1)C(=O)O [S-TRITYL-L-CYSTEINE] | 1280 nM

Each compound was assayed on SH-4 (assay: cells). Details: Homo sapiens, SH-4.
Assay type: functional, cell-based, Homo sapiens
Description: SANGER: Inhibition of human SH-4 cell growth in a cell viability assay.

Row | Compound | IC50
39 | N[C@@H](CSC(c1ccccc1)(c1ccccc1)c1ccccc1)C(=O)O [S-TRITYL-L-CYSTEINE] | 2310 nM

The compounds below were run on SK-N-DZ (assay: cells). Details: Homo sapiens, SK-N-DZ.
Assay type: functional, cell-based, Homo sapiens
Description: SANGER: Inhibition of human SK-N-DZ cell growth in a cell viability assay.

Row | Compound | IC50
40 | N[C@@H](CSC(c1ccccc1)(c1ccccc1)c1ccccc1)C(=O)O [S-TRITYL-L-CYSTEINE] | 3.14 µM

What follows are compounds tested on SK-NEP-1 (assay: cells). Details: Homo sapiens, SK-NEP-1.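 Note: growth inhibition of human SK-NEP-1 cells, read out by a cell viability assay.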
Assay type: functional, cell-based, Homo sapiens
Description: SANGER: Inhibition of human SK-NEP-1 cell growth in a cell viability assay.

Row | Compound | IC50
41 | N[C@@H](CSC(c1ccccc1)(c1ccccc1)c1ccccc1)C(=O)O [S-TRITYL-L-CYSTEINE] | 1860 nM

What follows are compounds tested on SNU-C2B (assay: cells). Details: Homo sapiens, SNU-C2B.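 Note: cell viability readout used to measure compound-driven suppression of SNU-C2B cell proliferation, IC50 marking half-maximal growth inhibition.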
Assay type: functional, cell-based, Homo sapiens
Description: SANGER: Inhibition of human SNU-C2B cell growth in a cell viability assay.

Row | Compound | IC50
42 | N[C@@H](CSC(c1ccccc1)(c1ccccc1)c1ccccc1)C(=O)O [S-TRITYL-L-CYSTEINE] | 1280 nM

These compounds were tested on ALL-PO (assay: cells). Details: Homo sapiens, ALL-PO.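 Note: growth inhibition of ALL-PO cells, read out by a cell viability assay.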
Assay type: functional, cell-based, Homo sapiens
Description: SANGER: Inhibition of human ALL-PO cell growth in a cell viability assay.

Row | Compound | IC50
43 | N[C@@H](CSC(c1ccccc1)(c1ccccc1)c1ccccc1)C(=O)O [S-TRITYL-L-CYSTEINE] | 2250 nM

These compounds were tested on ATN-1 (assay: cells). Details: Homo sapiens, ATN-1.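 Note: growth inhibition of human ATN-1 cells, read out with a cell viability assay.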
Assay type: functional, cell-based, Homo sapiens
Description: SANGER: Inhibition of human ATN-1 cell growth in a cell viability assay.

Row | Compound | IC50
44 | N[C@@H](CSC(c1ccccc1)(c1ccccc1)c1ccccc1)C(=O)O [S-TRITYL-L-CYSTEINE] | 859 nM

The compounds below were run on BV-173 (assay: cells). Details: Homo sapiens, BV-173.
Assay type: functional, cell-based, Homo sapiens
Description: SANGER: Inhibition of human BV-173 cell growth in a cell viability assay.

Row | Compound | IC50
45 | N[C@@H](CSC(c1ccccc1)(c1ccccc1)c1ccccc1)C(=O)O [S-TRITYL-L-CYSTEINE] | 990 nM

These compounds were tested on C2BBe1 (assay: cells). Details: Homo sapiens, C2BBe1.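 Note: growth inhibition of C2BBe1 cells, read out through a viability assay.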
Assay type: functional, cell-based, Homo sapiens
Description: SANGER: Inhibition of human C2BBe1 cell growth in a cell viability assay.

Row | Compound | IC50
46 | N[C@@H](CSC(c1ccccc1)(c1ccccc1)c1ccccc1)C(=O)O [S-TRITYL-L-CYSTEINE] | > 5.12 µM

The compounds below were run on CAS-1 (assay: cells). Details: Homo sapiens, CAS-1.
Assay type: functional, cell-based, Homo sapiens
Description: SANGER: Inhibition of human CAS-1 cell growth in a cell viability assay.

Row | Compound | IC50
47 | N[C@@H](CSC(c1ccccc1)(c1ccccc1)c1ccccc1)C(=O)O [S-TRITYL-L-CYSTEINE] | > 5.12 µM
